Test results: the NIST ThermoML archive (doi:10.1021/je700140j)

Assay: xn = mol fraction of the nth substance listed
Conditions: for surface tension liquid-gas: Ring tensiometer; for mass density / viscosity: 100.8 kPa, Liquid

OCCc1ccccc1 [2-phenylethanol] + OCc1ccccc1
Conditions	mass density, 298.15 K [kg/m3]	mass density, 308.15 K [kg/m3]	mass density, 318.15 K [kg/m3]	surface tension liquid-gas, 298.15 K [mN/m]	surface tension liquid-gas, 308.15 K [mN/m]	surface tension liquid-gas, 318.15 K [mN/m]	viscosity, 298.15 K [mPa·s]	viscosity, 308.15 K [mPa·s]	viscosity, 318.15 K [mPa·s]
x2 = 0	1016.2	1008.63	1000.98	39.43	38.93	38.35	11.4	7.518	5.232
x2 = 0.05	1018.11	1010.83	1003.42	–	–	–	11.07	7.322	5.116
x2 = 0.1	1020.14	1013.11	1005.98	39.2	38.7	38.11	10.73	7.132	5
x2 = 0.15	1022.33	1015.32	1008.23	–	–	–	10.41	6.94	4.883
x2 = 0.2	1024.45	1017.42	1010.36	39	38.48	37.86	10.08	6.752	4.77
x2 = 0.25	1026.56	1019.52	1012.41	–	–	–	9.759	6.564	4.655
x2 = 0.3	1028.52	1021.44	1014.25	38.83	38.28	37.63	9.44	6.372	4.542
x2 = 0.35	1030.34	1023.25	1015.99	–	–	–	9.125	6.186	4.43
x2 = 0.4	1032.11	1024.95	1017.65	38.7	38.1	37.41	8.816	5.999	4.32
x2 = 0.45	1033.8	1026.61	1019.28	–	–	–	8.506	5.815	4.21
x2 = 0.5	1035.25	1028.06	1020.74	38.6	37.95	37.21	8.203	5.636	4.101
x2 = 0.55	1036.33	1029.16	1021.87	–	–	–	7.913	5.467	3.997
x2 = 0.6	1037.32	1030.12	1022.84	38.6	37.9	37.12	7.628	5.302	3.897
x2 = 0.65	1038.01	1030.89	1023.63	–	–	–	7.351	5.14	3.797
x2 = 0.7	1038.62	1031.56	1024.26	38.6	37.85	37.02	7.081	4.979	3.697
x2 = 0.75	1039.06	1031.9	1024.63	–	–	–	6.813	4.821	3.599
x2 = 0.8	1039.43	1032.23	1024.86	38.6	37.8	36.92	6.554	4.666	3.5
x2 = 0.85	1039.72	1032.44	1024.99	–	–	–	6.296	4.519	3.402
x2 = 0.9	1040	1032.65	1025.18	38.6	37.76	36.84	6.036	4.374	3.306
x2 = 0.95	1040.59	1033.06	1025.43	–	–	–	5.787	4.232	3.213

OCc1ccccc1 [benzenemethanol] + CC(C)O
Conditions	mass density, 298.15 K [kg/m3]	mass density, 308.15 K [kg/m3]	mass density, 318.15 K [kg/m3]	surface tension liquid-gas, 298.15 K [mN/m]	surface tension liquid-gas, 308.15 K [mN/m]	surface tension liquid-gas, 318.15 K [mN/m]	viscosity, 298.15 K [mPa·s]	viscosity, 308.15 K [mPa·s]	viscosity, 318.15 K [mPa·s]
x2 = 0	1041.4	1033.6	1025.72	38.63	37.73	36.75	5.555	4.093	3.12
x2 = 0.05	1032.82	1025.02	1017.09	37.5	36.66	35.75	5.299	3.91	2.989
x2 = 0.1	1023.74	1015.91	1007.96	36.4	35.63	34.76	5.053	3.73	2.864
x2 = 0.15	1014.27	1006.4	998.38	35.35	34.6	33.77	4.799	3.558	2.745
x2 = 0.2	1004.39	996.5	988.43	34.3	33.59	32.78	4.559	3.389	2.628
x2 = 0.25	994.22	986.26	978.11	33.27	32.58	31.81	4.332	3.23	2.513
x2 = 0.3	983.63	975.59	967.39	32.27	31.58	30.83	4.116	3.076	2.4
x2 = 0.35	972.64	964.56	956.29	31.27	30.58	29.85	3.911	2.921	2.285
x2 = 0.4	961.2	953.08	944.75	30.3	29.6	28.9	3.714	2.772	2.172
x2 = 0.45	949.36	941.19	932.79	29.36	28.66	27.95	3.523	2.631	2.059
x2 = 0.5	937.02	928.79	920.32	28.45	27.75	27.05	3.335	2.49	1.953
x2 = 0.55	924.21	915.93	907.36	27.63	26.93	26.25	3.169	2.37	1.858
x2 = 0.6	910.83	902.49	893.86	26.83	26.15	25.48	3.01	2.256	1.769
x2 = 0.65	896.91	888.53	879.84	26.05	25.38	24.73	2.858	2.145	1.68
x2 = 0.7	882.44	874.02	865.32	25.28	24.61	23.98	2.715	2.042	1.594
x2 = 0.75	867.32	858.91	850.19	24.53	23.85	23.23	2.58	1.946	1.511
x2 = 0.8	851.54	843.1	834.29	23.78	23.1	22.48	2.46	1.851	1.434
x2 = 0.85	835.11	826.58	817.75	23.05	22.35	21.73	2.346	1.761	1.359
x2 = 0.9	817.95	809.39	800.5	22.33	21.6	20.96	2.251	1.675	1.295
x2 = 0.95	800	791.45	782.46	21.61	20.85	20.19	2.148	1.602	1.228
